According to the NIST ThermoML archive (doi:10.1021/je050020m):

Assay: xn = mol fraction of the nth substance listed
Settings: Liquid, Vibrating tube method

CCCCCCCCCC [decane] + O=C=O
Settings	mass density [kg/m3]
323.05 K, 14026 kPa, x2 = 0.0551	721.01
323.05 K, 15008 kPa, x2 = 0.0551	721.76
323.05 K, 16035 kPa, x2 = 0.0551	722.62
323.05 K, 17008 kPa, x2 = 0.0551	723.4
323.05 K, 18019 kPa, x2 = 0.0551	724.22
323.05 K, 18994 kPa, x2 = 0.0551	724.89
323.05 K, 20009 kPa, x2 = 0.0551	725.73
323.05 K, 21010 kPa, x2 = 0.0551	726.47
323.05 K, 21987 kPa, x2 = 0.0551	727.22
323.05 K, 23060 kPa, x2 = 0.0551	728.04
323.05 K, 23980 kPa, x2 = 0.0551	728.74
323.05 K, 25055 kPa, x2 = 0.0551	729.61
323.06 K, 5014 kPa, x2 = 0.2369	719.6
323.06 K, 6022 kPa, x2 = 0.2369	720.66
323.06 K, 7021 kPa, x2 = 0.2369	721.73
323.06 K, 7029 kPa, x2 = 0.4536	732.05
323.06 K, 8017 kPa, x2 = 0.4536	733.42
323.06 K, 8020 kPa, x2 = 0.2369	722.8
323.06 K, 9010 kPa, x2 = 0.2369	723.79
323.06 K, 9018 kPa, x2 = 0.4536	734.79
323.06 K, 10024 kPa, x2 = 0.4536	736.13
323.06 K, 10030 kPa, x2 = 0.2369	724.84
323.06 K, 11018 kPa, x2 = 0.2369	725.81
323.06 K, 11019 kPa, x2 = 0.4536	737.41
323.06 K, 12021 kPa, x2 = 0.2369	726.78
323.06 K, 12025 kPa, x2 = 0.4536	738.69
323.06 K, 13001 kPa, x2 = 0.2369	727.75
323.06 K, 13003 kPa, x2 = 0.4536	739.89
323.06 K, 14021 kPa, x2 = 0.2369	728.7
323.06 K, 14027 kPa, x2 = 0.4536	741.16
323.06 K, 15001 kPa, x2 = 0.4536	742.33
323.06 K, 15014 kPa, x2 = 0.2369	729.63
323.06 K, 16010 kPa, x2 = 0.2369	730.54
323.06 K, 16024 kPa, x2 = 0.4536	743.53
323.06 K, 17006 kPa, x2 = 0.2369	731.46
323.06 K, 17010 kPa, x2 = 0.4536	744.68
323.06 K, 18028 kPa, x2 = 0.2369	732.36
323.06 K, 18030 kPa, x2 = 0.4536	745.84
323.06 K, 19000 kPa, x2 = 0.4536	746.93
323.06 K, 19016 kPa, x2 = 0.2369	733.24
323.06 K, 20015 kPa, x2 = 0.2369	734.11
323.06 K, 20028 kPa, x2 = 0.4536	748.09
323.06 K, 21001 kPa, x2 = 0.4536	749.17
323.06 K, 21027 kPa, x2 = 0.2369	735
323.06 K, 22020 kPa, x2 = 0.4536	750.24
323.06 K, 22023 kPa, x2 = 0.2369	735.85
323.06 K, 23012 kPa, x2 = 0.4536	751.33
323.06 K, 23022 kPa, x2 = 0.2369	736.71
323.06 K, 24006 kPa, x2 = 0.2369	737.58
323.06 K, 24021 kPa, x2 = 0.4536	752.42
323.06 K, 25004 kPa, x2 = 0.2369	738.42
323.06 K, 25029 kPa, x2 = 0.4536	753.51
332.91 K, 12008 kPa, x2 = 0.8114	740.55
332.91 K, 13051 kPa, x2 = 0.8114	744.82
332.91 K, 14018 kPa, x2 = 0.8114	748.57
332.91 K, 15048 kPa, x2 = 0.8114	752.37
332.91 K, 15985 kPa, x2 = 0.8114	755.64
332.91 K, 17015 kPa, x2 = 0.8114	759.04
332.91 K, 18008 kPa, x2 = 0.8114	762.27
332.91 K, 19002 kPa, x2 = 0.8114	765.33
332.91 K, 20017 kPa, x2 = 0.8114	768.38
332.91 K, 21018 kPa, x2 = 0.8114	771.25
332.91 K, 22044 kPa, x2 = 0.8114	774.13
332.91 K, 23040 kPa, x2 = 0.8114	776.83
332.91 K, 24008 kPa, x2 = 0.8114	779.4
332.91 K, 25047 kPa, x2 = 0.8114	782.09
332.94 K, 1997 kPa, x2 = 0.0551	702.61
332.94 K, 3024 kPa, x2 = 0.0551	703.63
332.94 K, 4011 kPa, x2 = 0.0551	704.59
332.94 K, 5026 kPa, x2 = 0.2369	711.09
332.94 K, 5040 kPa, x2 = 0.0551	705.62
332.94 K, 6015 kPa, x2 = 0.2369	712.23
332.94 K, 6062 kPa, x2 = 0.0551	706.62
332.94 K, 7009 kPa, x2 = 0.0551	707.53
332.94 K, 7015 kPa, x2 = 0.4536	721.74
332.94 K, 7019 kPa, x2 = 0.2369	713.38
332.94 K, 7978 kPa, x2 = 0.0551	708.43
332.94 K, 8020 kPa, x2 = 0.2369	714.47
332.94 K, 8025 kPa, x2 = 0.4536	723.26
332.94 K, 9016 kPa, x2 = 0.4536	724.72
332.94 K, 9017 kPa, x2 = 0.2369	715.56
332.94 K, 9037 kPa, x2 = 0.0551	709.44
332.94 K, 9992 kPa, x2 = 0.0551	710.31
332.94 K, 10015 kPa, x2 = 0.2369	716.65
332.94 K, 10023 kPa, x2 = 0.4536	726.15
332.94 K, 11009 kPa, x2 = 0.2369	717.69
332.94 K, 11014 kPa, x2 = 0.4536	727.55
332.94 K, 11032 kPa, x2 = 0.0551	711.27
332.94 K, 12001 kPa, x2 = 0.4536	728.9
332.94 K, 12005 kPa, x2 = 0.9663	511.9
332.94 K, 12013 kPa, x2 = 0.0551	712.13
332.94 K, 12015 kPa, x2 = 0.2369	718.74
332.94 K, 12511 kPa, x2 = 0.9663	544.43
332.94 K, 13003 kPa, x2 = 0.9663	571.24
332.94 K, 13015 kPa, x2 = 0.2369	719.76
332.94 K, 13027 kPa, x2 = 0.0551	713.03
332.94 K, 13045 kPa, x2 = 0.4536	730.28
332.94 K, 13998 kPa, x2 = 0.4536	731.55
332.94 K, 14011 kPa, x2 = 0.2369	720.77
332.94 K, 14015 kPa, x2 = 0.9663	614.37
332.94 K, 14018 kPa, x2 = 0.0551	713.89
332.94 K, 15000 kPa, x2 = 0.4536	732.81
332.94 K, 15003 kPa, x2 = 0.2369	721.75
332.94 K, 15021 kPa, x2 = 0.0551	714.75
332.94 K, 15026 kPa, x2 = 0.9663	648.23
332.94 K, 15997 kPa, x2 = 0.0551	715.59
332.94 K, 16019 kPa, x2 = 0.2369	722.73
332.94 K, 16032 kPa, x2 = 0.4536	734.14
332.94 K, 16035 kPa, x2 = 0.9663	674.85
332.94 K, 16998 kPa, x2 = 0.0551	716.44
332.94 K, 17015 kPa, x2 = 0.2369	723.7
332.94 K, 17018 kPa, x2 = 0.4536	735.36
332.94 K, 17018 kPa, x2 = 0.9663	695.62
332.94 K, 18016 kPa, x2 = 0.9663	713.48
332.94 K, 18021 kPa, x2 = 0.4536	736.57
332.94 K, 18026 kPa, x2 = 0.2369	724.66
332.94 K, 18031 kPa, x2 = 0.0551	717.29
332.94 K, 19002 kPa, x2 = 0.9663	728.62
332.94 K, 19004 kPa, x2 = 0.0551	718.07
332.94 K, 19012 kPa, x2 = 0.4536	737.79
332.94 K, 19022 kPa, x2 = 0.2369	725.6
332.94 K, 20002 kPa, x2 = 0.0551	718.88
332.94 K, 20002 kPa, x2 = 0.4536	738.93
332.94 K, 20012 kPa, x2 = 0.2369	726.51
332.94 K, 20033 kPa, x2 = 0.9663	742.59
332.94 K, 21014 kPa, x2 = 0.0551	719.68
332.94 K, 21022 kPa, x2 = 0.9663	754.63
332.94 K, 21024 kPa, x2 = 0.2369	727.44
332.94 K, 21028 kPa, x2 = 0.4536	740.14
332.94 K, 22021 kPa, x2 = 0.2369	728.35
332.94 K, 22021 kPa, x2 = 0.4536	741.29
332.94 K, 22027 kPa, x2 = 0.0551	720.5
332.94 K, 22029 kPa, x2 = 0.9663	765.58
332.94 K, 23009 kPa, x2 = 0.4536	742.44
332.94 K, 23010 kPa, x2 = 0.2369	729.26
